Measured values from US8034833B2, “Phosphorus binder for treatment of renal disease” (Biolink Life Sciences, Inc., priority 2008, dated 2011).
Read-outs that look alike come from different tables or passages of the source.

What was measured:
[1] = system: parathyroid hormone (PTH) secretion; conditions: maintenance dialysis patients; cited from earlier work
[2] = cited from earlier work
[3] = cited from earlier work; remark: listed apart in the source
[4] = in many patients; cited from earlier work
[5] = 77 mEq per os; normal subjects; cited from earlier work
[6] = Solubility in water of cationic phosphate binders (Lange's Handbook); conditions: relative hydrophile by solubility in water
[7] = pH 6.0; Sheikh et al. (Note 2); cited from earlier work
[8] = intravenous administration, cited from earlier work
[9] = hemodialysis or peritoneal dialysis patients; cited from earlier work

Molecule: [Mg+2].[OH-].[OH-] [Magnesium Hydroxide]
- suppression of parathyroid hormone (PTH) secretion [1]: Neither the combination of oral calcium carbonate/magnesium hydroxide nor magnesium hydroxide alone was effective
- serum Pi level ([2]; average 734 mg elemental Mg/day, three to five weeks, control (no binders) 9.0 mg/dL): 8.1 mg/dL
- mean serum Mg level ([2]; average 734 mg elemental Mg/day, dialysate Mg 1.2 to 1.8 mg/dl): 4.32 mg/dL
- patients who developed diarrhea ([2]; nine patients treated): Four of nine
- serum Mg level, average ([3]; during Mg(OH)2 treatment): 4.3 mg/dL
- serum Pi level ([3]; human, in vivo): 6.1 mg/dL
- severe hyperkalemia [4]: ≤ 8 mEq/L

Molecule: Magnesium Acetate
- Pi absorption [5]: 28%

Molecule: [O]=[Mg] [Magnesium Oxide]
- Hydrophile? [6]: No

Molecule: Calcium Gluconate
- Observed in vitro Pi Binding, % [7]: 90%

Molecule: C[N+](C)(C)C[C@H](O)CC(=O)[O-] [L-carnitine, L-(−)-Carnitine]
- effect on total, LDL and HDL cholesterol [8]: decrease total cholesterol and LDL cholesterol while significantly increasing HDL cholesterol
- effect on serum phosphate concentrations ([8]; maintenance hemodialysis patients): reduced the serum phosphate concentrations significantly

Molecule: choline magnesium trisalicylate
- effect on serum Pi levels [9]: no effect
